We go through five compounds from patent US4002753A, “6-Substituted 3-carbethoxyhydrazinopyridazines” (I.S.F. S.p.A., priority 1973, dated 1977).

What all share (type): in vivo
The subject of data set [1] is Renal hypertensive awaken rat. Briefly: Anti-hypertensive activity in the renal hypertensive awaken rat (Grollman method), arterial pressure by bloodless method. As to conditions: oral; for ED20: read-out: ED20 orally. Here is the method:
Some illustrative results obtained in the renal hypertensive awaken rat according to the method of A. Grollman (Proc. Soc. Exptl. Biol. Med., 57, 102, 1944) are given in Table 1. The products were administered orally to groups of 4 rats for each dosage level. The arterial pressure was measured by bloodless method immediately before and at the 1st, 3rd, 5th, 7th, 12th, 24th, 36th, 48th and 60th hour after administration.
x ED20 = dose producing a 20% fall in pressure compared to the basal

A further data set relates to Mouse. The data set is described as follows: Acute toxicity in the mouse, intraperitoneal (approximate LD50). As to conditions: 6 dosage levels. Here is the method: (§1) The evaluation of the acute toxicity was carried out in the mouse administering the products by the intraperitoneal route at 6 different dosage levels. The approximate LD50 was determined thereafter.
Experiment in data set [2]: as above
Conditions: in vivo, ip, 6 dosage levels, read-out: Mouse LD50 i.p. Here is the method:
as §1

Where [3] appears, read: dose producing a 20% fall in pressure compared to the basal value.

By LD50 is commonly meant the dose at which mortality reaches 50%.

SMILES strings stand for the structures.

Take `CCOC(=O)NNc1nncc2ccccc12` [Binazin, reference compound]: in data set [1], the “Time in hours of half effect appearance” value stood at 20 h and the “Time in hours of maximum effect appearance” value turned out to be 3 h. In addition, in data set [1] (setting [3]), the ED20 orally stood at 7 mg/kg. Besides, the “Mouse LD50 i.p.” value in the data set with Mouse is 500 mg/kg.

In the case of `CCOC(=O)NNc1ccc(N(C)CC(C)O)nn1` (centres unmarked) [Example 3, 3-(2-Carbethoxyhydrazino)-6-[N-(2-hydroxypropyl)methylamino]-pyridazine], in data set [1], the “Time in hours of half effect appearance” value stood at 36 h and the “Time in hours of maximum effect appearance” value was 5 h. In addition, in data set [1] (setting [3]), the ED20 stood at 1 mg/kg. For the same compound, in data set [2], the LD50 was 700 mg/kg.

With `C=CCN(CC=C)c1ccc(NNC(=O)OCC)nn1` [Example 5, 3-(2-Carbethoxyhydrazino)-6-diallylaminopyridazine], in data set [1], the “Time in hours of half effect appearance” value worked out at 48 h and the “Time in hours of maximum effect appearance” value is 5 h. Also, the ED20 in data set [1] (setting [3]) is 1 mg/kg. The LD50 in data set [2] is 300 mg/kg.

Turning to `CCOC(=O)NNc1ccc(N(CC)CC(C)O)nn1` (centres unmarked) [Example 6, 3-(2-Carbethoxyhydrazino)-6-[N-(2-hydroxypropyl)ethylamino]-pyridazine], in data set [1], the “Time in hours of half effect appearance” value stood at 36 h and the “Time in hours of maximum effect appearance” value came out at 5 h. For the same compound, in data set [1] (setting [3]), the ED20 worked out at 1 mg/kg. Also, the LD50 in data set [2] amounted to 700 mg/kg.

Turning to `NNc1nncc2ccccc12` [Hydralazine, reference compound], in data set [1], the “Time in hours of half effect appearance” value is 5 h and the “Time in hours of maximum effect appearance” value amounted to 1 h. Moreover, the ED20 in data set [1] (setting [3]) is 3 mg/kg. Also, the LD50 in data set [2] came out at 100 mg/kg.
